pEC50, pKi: −log10 of the molar value.
Assays:
TNF-α = assay: Lipopolysaccharide-induced TNF-α inhibition in vitro; type: cell-based
MC4r [1] = molecular target: T1, MC4r (Homo sapiens, UniProt P32245); assay: cell-based
hMC1r = hMC1r (Homo sapiens, UniProt Q01726); assay: Assay for agonist activity: cAMP accumulation in HBL melanoma cells; type: cell-based; set-up: endogenous in cells; host or cells: HBL human melanoma cells; details: HBL, compared to NDP-α-MSH as 100%, read-out: MC-1 Emax (average; cAMP HBL)
Sequence of hMC1r (Q01726 whole entry): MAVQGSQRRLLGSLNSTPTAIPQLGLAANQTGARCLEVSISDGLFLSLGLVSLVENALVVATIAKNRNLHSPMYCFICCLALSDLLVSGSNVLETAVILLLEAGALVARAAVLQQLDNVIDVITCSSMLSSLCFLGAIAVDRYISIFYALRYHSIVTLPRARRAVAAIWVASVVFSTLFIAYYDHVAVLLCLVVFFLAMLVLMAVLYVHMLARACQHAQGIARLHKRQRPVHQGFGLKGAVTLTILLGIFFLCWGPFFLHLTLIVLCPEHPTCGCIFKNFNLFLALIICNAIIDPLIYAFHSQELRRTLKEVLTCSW

MC1r = assay: Functional selectivity evaluation at Cerep, MC1r; type: cell-based
[2] = Plasma assay for systemic peptide in DNBS colitis rats after oral capsules; type: in vivo, rat; details: oral capsules of Lot 41
MC3r = molecular target: T2, MC3r (Homo sapiens, UniProt P41968); assay: Functional selectivity evaluation at Cerep, MC3r; type: cell-based
T2 construct: Cerep
T2 sequence (P41968 whole entry, species assumed): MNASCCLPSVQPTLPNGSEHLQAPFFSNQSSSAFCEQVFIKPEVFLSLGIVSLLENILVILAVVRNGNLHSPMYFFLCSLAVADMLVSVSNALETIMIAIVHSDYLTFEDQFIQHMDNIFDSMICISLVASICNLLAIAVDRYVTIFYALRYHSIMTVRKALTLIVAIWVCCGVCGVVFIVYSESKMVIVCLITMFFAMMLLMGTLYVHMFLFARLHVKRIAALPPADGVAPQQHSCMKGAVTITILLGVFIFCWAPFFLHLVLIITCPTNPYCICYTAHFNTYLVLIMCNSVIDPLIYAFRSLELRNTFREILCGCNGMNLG

MC2r = molecular target: T3, MC2r (Homo sapiens, UniProt Q01718); assay: Functional selectivity evaluation at Cerep, MC2r; type: cell-based
T3 construct: Cerep
T3 sequence (Q01718 whole entry, species assumed): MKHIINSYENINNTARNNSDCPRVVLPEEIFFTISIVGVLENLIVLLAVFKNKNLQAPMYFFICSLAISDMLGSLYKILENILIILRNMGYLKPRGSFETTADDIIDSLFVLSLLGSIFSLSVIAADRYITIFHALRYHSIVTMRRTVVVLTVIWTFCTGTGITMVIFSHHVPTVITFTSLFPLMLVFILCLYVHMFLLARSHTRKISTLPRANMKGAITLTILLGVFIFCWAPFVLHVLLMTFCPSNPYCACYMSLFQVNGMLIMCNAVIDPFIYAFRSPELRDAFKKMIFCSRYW
T3 sequence (Q8TCY5 whole entry partner, species assumed): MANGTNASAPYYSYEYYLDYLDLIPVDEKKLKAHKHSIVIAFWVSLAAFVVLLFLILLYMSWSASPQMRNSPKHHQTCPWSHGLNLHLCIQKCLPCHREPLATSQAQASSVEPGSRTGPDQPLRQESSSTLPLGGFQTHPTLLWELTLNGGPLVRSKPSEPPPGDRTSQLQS
From the text: The results were as follows:

[3] = Human clinical microdose study of C14-labeled oral formulation; type: in vivo; details: single oral microdose of C14-labeled Example 9.3 formulated as for Lot 41
From the text: A combination of Eudragit® L100-55, Eudragit® S-100 and Eudragit® FS30D polymethacrylates were selected and utilized at a weight ratio of 23.25:23.0:12.5, where the weight of L100-55 and S-100 was dry weight of solid material, and the weight of FS30D was of a commercially prepared aqueous formulation wherein the 12.5 grams of liquid FS30D contained 3.75 grams polymer, for a weight ratio of polymer of 23.25:23:3.75. The combination of polymethacrylates were placed in acetone and stirred for an extended period. […] The dried material was retrieved, diluted with additional dried polymetacrylate mixture not containing peptide to obtain the desired target concentration in a predetermined quantity of material, and milled to the desired diameter and sieved. The sieved material was placed within a gelatin size 2 capsule to provide an oral formulation.
The oral formulation was administered in a microdose level to 24 subjects, divided into six cohorts of 4 subjects each.
The only radioactive material identified in urine was the C14 labelled phenylalanine.

MC4r [4] = molecular target: T1, MC4r; assay: Competitive inhibition binding assay using [I125]-NDP-α-MSH, hMC4r membranes; set-up: expressed in transfected cells; host or cells: HEK-293; details: human recombinant MC4r, HEK-293 membranes, read-out: MC-4 Ki (average)
Description: A competitive inhibition binding assay was performed using membrane homogenates prepared from HEK-293 cells that express recombinant hMC1r or hMC4r (in each instance where the h prefix refers to human), or alternatively membrane homogenates from B16-F10 mouse melanoma cells containing endogenous murine MC1r. In the examples that follow, all MC1r and MC4r values are for human recombinant receptors, unless otherwise noted. Assays were performed in 96 well polypropylene round-bottom plates (VWR catalog number 12777-030). […] After incubation for 90 minutes at 37° C., the assay mixture was filtered onto GF/B Unifilter plates (Perkin-Elmer catalog number 6005177) and washed with 3 mL of ice-cold buffer per well. Filters were air dried and 35 μL of scintillation cocktail added to each well. Plates were counted in a Microbeta counter for bound radioactivity. […] Each assay was conducted in duplicate and the actual mean values are described, with results less than 0% reported as 0%. Ki values for peptides of the present invention were determined using Graph-Pad Prism® curve-fitting software.
All results are expressed in nM except for Emax values, which are percentage values. Peptides with the captioned primary sequence were synthesized and purified as described in Section 7 above, with the resulting peptide having the structure depicted.

[5] = Dissolution of Eudragit microparticles, USP Apparatus 2; type: physicochemical; details: Lot 40 microparticles (FIG. 8)
Description: About 1 g of the microparticles was accurately weighed and suspended in the acid at 37° C. for 2 hours. The pH of the medium was then sequentially adjusted to pH 5.5 for 1 hour, pH 6.8 for another hour and finally to pH 7.4 for 7 hours.

72 in vitro assays = assay: Eurofins lead profile; details: 10 μM
MC5r = molecular target: T4, MC5r (Homo sapiens, UniProt P33032); assay: Functional selectivity evaluation at Cerep, MC5r; type: cell-based
T4 construct: Cerep
T4 sequence (P33032 whole entry, species assumed): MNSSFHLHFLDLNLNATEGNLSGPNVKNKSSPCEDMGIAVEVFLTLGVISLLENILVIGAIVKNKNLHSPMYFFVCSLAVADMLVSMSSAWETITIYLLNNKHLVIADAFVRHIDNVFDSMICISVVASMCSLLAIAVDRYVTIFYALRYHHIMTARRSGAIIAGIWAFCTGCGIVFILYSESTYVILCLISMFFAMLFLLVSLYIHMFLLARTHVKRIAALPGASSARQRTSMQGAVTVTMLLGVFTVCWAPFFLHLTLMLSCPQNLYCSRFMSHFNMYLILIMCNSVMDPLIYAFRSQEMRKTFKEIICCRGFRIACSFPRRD

[6] = test system: DNBS-induced bowel inflammation; assay: Cannulated rat DNBS model of bowel inflammation, intracolonic dosing; type: in vivo; details: 0.5 μg and 5.0 μg intracolonic, Wistar rats
Description: The rats were implanted with a catheter in the proximal part of the ascending colon, which exited out the nape of the neck for dosing access. […] Non-cannulated control rats were administered sulfasalazine (positive controls) and vehicle (untreated controls).

T1 sequence (P32245 whole entry): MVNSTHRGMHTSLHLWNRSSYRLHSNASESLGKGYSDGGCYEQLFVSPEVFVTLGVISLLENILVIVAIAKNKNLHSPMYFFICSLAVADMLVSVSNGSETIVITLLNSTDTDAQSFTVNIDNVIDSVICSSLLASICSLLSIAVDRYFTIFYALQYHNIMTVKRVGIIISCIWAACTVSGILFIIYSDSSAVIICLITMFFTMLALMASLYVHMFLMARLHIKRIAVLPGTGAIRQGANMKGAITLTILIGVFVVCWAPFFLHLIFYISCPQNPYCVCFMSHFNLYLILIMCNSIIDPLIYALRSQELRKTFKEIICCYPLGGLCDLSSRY

CCCC[C@H](NC(C)=O)C(=O)N[C@H]1CCC(=O)NC[C@@H](C(=O)N[C@@H](Cc2c[nH]c3ccccc23)C(N)=O)NC(=O)[C@H](CCCNC(=N)N)NC(=O)[C@@H](Cc2ccccc2)NC(=O)[C@H](Cc2c[nH]cn2)NC1=O [Example 9.3, Ac-Nle-cyclo(Glu-His-D-Phe-Arg-Dap)-Trp-NH2]
lipopolysaccharide-induced TNF-α inhibition (TNF-α): comparable to α-MSH and ACTH
pEC50 (MC4r [1]): 6.29
Emax (hMC1r): 91%
pEC50 (MC1r): 9.24
systemic peptide in plasma [2]: did not detect any
pEC50 (MC3r): < 5.00
pEC50 (MC2r): < 5.00
intact peptide in plasma or urine [3]: no intact peptide
peptide levels in fecal samples [3]: significant and approximately equal levels
pKi (MC4r [4]): 6.29
peptide release from microparticles ([5]; buffer pH 4.5-5.5): no release
peptide release from microparticles ([5]; buffer pH adjusted over time 4.5-7.5): approximately total release
activity in 72 in vitro assays (Eurofins lead profile) (72 in vitro assays): no activity was detected
pEC50 (MC5r): < 5.00
inflammation score ([6]; FIG. 1A): as active as sulfasalazine
colon weight ([6]; FIG. 1B): as active as sulfasalazine
